# Laboratory results published in US7396939B2, “3-cyclopropyl-4-(3-amino-2-methylbenzoyl)pyrazoles and their use as herbicides” (Bayer CropScience GmbH, priority 2004, dated 2008).
# Like-named read-outs stand apart in the source and are kept apart here.
# Legend:
# Format in all cases: in vivo
# [1] = tested on: Echinochloa crus galli (ECHCG); assay: Post-emergence action against harmful plants; settings: post-emergence application
# Description: (§1) Seeds of monocotyledonous and dicotyledonous harmful plants and seeds of corn, soybean and wheat are placed into sandy loam in cardboard pots, covered with soil and grown in the greenhouse under good growth conditions. Two to three weeks after sowing the harmful plants and the crop plants are treated in the three-leaf stage. The compounds according to the invention and the prior-art compounds, formulated as wettable powders or emulsion concentrates, are sprayed onto the green plant parts at an application rate of 600 to 800 l of water/ha (converted) in one of the dosages given in tables 1 to 10. After the test plants have remained in the greenhouse under optimum growth conditions for 3 to 4 weeks, the effect of the compounds is rated in comparison to compounds disclosed in the prior art.
# [2] = tested on: Matricaria inodora (MATIN); assay: Post-emergence action against harmful plants; settings: for pest or weed control at 320 g/ha / pest or weed control at 80 g/ha: Tripleurospermum inodorum, read-out: Herbicidal action MATIN; for pest or weed control at 320 g/ha / Herbicidal action MATIN: 320 g of a.i./ha; for Herbicidal action MATIN: Comparative Table 10
# Description: as §1
# [3] = tested on: Glycine max (soybean) (GLXMA); assay: Post-emergence damage of crop plants; settings: post-emergence application
# Description: as §1
# [4] = tested on: Triticum aestivum (wheat) (TRZAS); assay: Post-emergence damage of crop plants; settings: post-emergence application, 320 g of a.i./ha, Comparative Table 6
# Description: as §1
# [5] = tested on: Oryza sativa (rice) (ORYSA); assay: Damage of rice under paddy rice conditions; settings: post-emergence application
# Description: (§2) Rice plants and harmful plants typical in rice crops are grown in the greenhouse under paddy rice conditions (water level: 2-3 cm). After the treatment with the compounds according to the invention and the prior-art compounds, the test plants are placed in the greenhouse under optimum growth conditions and kept like this during the entire test. About three weeks after the application, evaluation is carried out by visual scoring of the damage to the plants.
# Setaria viridis (SETVI) = assay: Action against harmful plants in the rice test; settings: post-emergence application, 320 g of a.i./ha, Comparative Table 5
# Description: as §2
# Galium aparine (GALAP) [6] = assay: Post-emergence action against harmful plants; settings: post-emergence application
# Description: as §1
# Stellaria media (STEME) = assay: Post-emergence action against harmful plants; settings: post-emergence application, 80 g of a.i./ha
# Description: as §1
# Zea mays (corn) (ZEAMX) [7] = assay: Post-emergence damage of crop plants; settings: post-emergence application
# Description: as §1
# Veronica persica (VERPE) = assay: Post-emergence action against harmful plants; settings: post-emergence application
# Description: as §1
# Avena fatua (AVEFA) = assay: Post-emergence action against harmful plants; settings: post-emergence application, 320 g of a.i./ha, Comparative Table 8
# Description: as §1
# Galium aparine (GALAP) [8] = assay: Pre-emergence action against harmful plants; settings: pre-emergence application, 320 g of a.i./ha, Comparative Table 7
# Source text: (§3) Seeds of monocotyledonous and dicotyledonous harmful plants and seeds of corn, soybean and wheat are placed into sandy loam in cardboard pots and covered with soil. The compounds according to the invention and the prior-art compounds, formulated as wettable powders or emulsion concentrates, are then applied to the surface of the covering soil as an aqueous suspension or emulsion at an application rate of 600 to 800 l of water/ha (converted) in one of the dosages given in tables 1 to 10. After the treatment, the pots are placed in a greenhouse and kept under good growth conditions for the harmful plants and crop plants. Visual scoring of plant or emergence damage is carried out after the test plants have emerged after an experimental period of 3 to 4 weeks.
# Zea mays (corn) (ZEAMX) [9] = assay: Pre-emergence damage of crop plants; settings: pre-emergence application, 320 g of a.i./ha, Comparative Table 7
# Source text: as §3
# [10] = tested on: Pharbitis purpureum (PHBPU); assay: Post-emergence action against harmful plants; settings: post-emergence application, 320 g of a.i./ha
# Description: as §1
# [11] = tested on: Digitaria sanguinalis (DIGSA); assay: Post-emergence action against harmful plants; settings: post-emergence application, 80 g of a.i./ha, Comparative Table 1
# Description: as §1
# Viola tricolor (VIOTR) = assay: Post-emergence action against harmful plants; settings: post-emergence application, 80 g of a.i./ha, Comparative Table 1
# Description: as §1
# [12] = 320 g of a.i./ha, Comparative Table 6
# [13] = post-emergence application, Comparative Table 6
# [14] = 320 g of a.i./ha, Comparative Table 5
# [15] = 80 g of a.i./ha, Comparative Table 3
# [16] = post-emergence application, 80 g of a.i./ha, Comparative Table 3
# [17] = 80 g of a.i./ha, Comparative Table 4
# [18] = 20 g of a.i./ha, Comparative Table 2
# [19] = post-emergence application, Comparative Table 8
# [20] = 320 g of a.i./ha, Comparative Table 8
# [21] = 320 g of a.i./ha, Comparative Table 10
# [22] = post-emergence application, Comparative Table 9
# [23] = 320 g of a.i./ha, Comparative Table 9
# [24] = 80 g of a.i./ha, Comparative Table 1
# [25] = post-emergence application, 80 g of a.i./ha, Comparative Table 1
smiles,measurement,setting,value
CCn1nc(C)c(C(=O)c2ccc(S(C)(=O)=O)c(N3CCCC3)c2C)c1O [S6],Herbicidal action ECHCG,[1]; [12],50%
same,pest or weed control at 320 g/ha,[2]; [13],0%
same,Damage to the crop plants GLXMA,[3]; [12],20%
same,Damage to the crop plants TRZAS,[4],10%
same,Damage to the crop plants ORYSA,[5]; [14],20%
same,Herbicidal action SETVI,Setaria viridis (SETVI),90%
C=CCNc1c(S(C)(=O)=O)ccc(C(=O)c2c(C3CC3)nn(C)c2O)c1C [No. 5],Herbicidal action GALAP,Galium aparine (GALAP) [6]; [15],80%
same,pest or weed control at 80 g/ha,[2]; [16],50%
same,Herbicidal action STEME,Stellaria media (STEME); Comparative Table 3,100%
same,Damage to the crop plants GLXMA,[3]; [15],0%
same,Damage to the crop plants ZEAMX,Zea mays (corn) (ZEAMX) [7]; [15],10%
Cc1c(C(=O)c2c(C3CC3)nn(C)c2O)ccc(S(C)(=O)=O)c1N1CCCC1 [No. 14],Herbicidal action ECHCG,[1]; [12],80%
same,pest or weed control at 320 g/ha,[2]; [13],50%
same,Damage to the crop plants GLXMA,[3]; [12],10%
same,Damage to the crop plants TRZAS,[4],0%
same,Damage to the crop plants ORYSA,[5]; [14],10%
same,Herbicidal action SETVI,Setaria viridis (SETVI),100%
Cc1c(C(=O)c2c(C3CC3)nn(C)c2O)ccc(S(C)(=O)=O)c1N1CCCCC1 [No. 15],pest or weed control at 80 g/ha,[2]; post-emergence,60%
same,Herbicidal action STEME,Stellaria media (STEME); Comparative Table 4,70%
same,Damage to the crop plants ZEAMX,Zea mays (corn) (ZEAMX) [7]; [17],0%
Cc1nn(C)c(O)c1C(=O)c1ccc(S(C)(=O)=O)c(N2CCCCC2)c1C [S5],pest or weed control at 80 g/ha,"[2]; post-emergence application, 80 g of a.i./ha, Comparative Table 4",40%
same,Herbicidal action STEME,Stellaria media (STEME); Comparative Table 4,20%
same,Damage to the crop plants ZEAMX,Zea mays (corn) (ZEAMX) [7]; [17],10%
CCCCNc1c(S(C)(=O)=O)ccc(C(=O)c2c(C3CC3)nn(C)c2O)c1C [No. 4],Herbicidal action GALAP,Galium aparine (GALAP) [6]; [18],80%
same,Herbicidal action VERPE,Veronica persica (VERPE); [18],60%
same,Damage to the crop plants GLXMA,[3]; [18],0%
same,Damage to the crop plants ORYSA,[5]; [18],0%
C=CCNc1c(S(C)(=O)=O)ccc(C(=O)c2c(C)nn(C)c2O)c1C [S4],Herbicidal action GALAP,Galium aparine (GALAP) [6]; [15],80%
same,pest or weed control at 80 g/ha,[2]; [16],30%
same,Herbicidal action STEME,Stellaria media (STEME); Comparative Table 3,100%
same,Damage to the crop plants GLXMA,[3]; [15],50%
same,Damage to the crop plants ZEAMX,Zea mays (corn) (ZEAMX) [7]; [15],30%
COCCNc1c(S(C)(=O)=O)ccc(C(=O)c2c(C3CC3)nn(C)c2O)c1C [No. 9],Herbicidal action AVEFA,Avena fatua (AVEFA),70%
same,pest or weed control at 320 g/ha,[2]; [19],80%
same,Damage to the crop plants GLXMA,[3]; [20],20%
same,Damage to the crop plants ZEAMX,Zea mays (corn) (ZEAMX) [7]; [20],0%
same,Herbicidal action GALAP,Galium aparine (GALAP) [8],80%
same,Damage to the crop plants ZEAMX,Zea mays (corn) (ZEAMX) [9],0%
CCOCCNc1c(S(C)(=O)=O)ccc(C(=O)c2c(C3CC3)nn(C)c2O)c1C [No. 10],Herbicidal action ECHCG,[1]; [21],100%
same,pest or weed control at 320 g/ha,[2]; [22],100%
same,Herbicidal action MATIN,[2]; post-emergence application,100%
same,Herbicidal action PHBPU,[10]; Comparative Table 9,100%
same,Herbicidal action PHBPU,[10]; Comparative Table 10,100%
same,Herbicidal action VERPE,Veronica persica (VERPE); [23],100%
same,Herbicidal action VERPE,Veronica persica (VERPE); [21],100%
same,Damage to the crop plants GLXMA,[3]; [23],20%
same,Damage to the crop plants GLXMA,[3]; [21],20%
same,Damage to the crop plants ZEAMX,Zea mays (corn) (ZEAMX) [7]; [21],0%
CCCNc1c(S(C)(=O)=O)ccc(C(=O)c2c(C3CC3)nn(C)c2O)c1C [No. 3],Herbicidal action DIGSA,[11],90%
same,Herbicidal action ECHCG,[1]; [24],90%
same,pest or weed control at 80 g/ha,[2]; [25],70%
same,Herbicidal action VIOTR,Viola tricolor (VIOTR),90%
same,Damage to the crop plants ZEAMX,Zea mays (corn) (ZEAMX) [7]; [24],30%
CCOCCNc1c(S(C)(=O)=O)ccc(C(=O)c2c(C)nn(C)c2O)c1C [S1],pest or weed control at 320 g/ha,[2]; [22],60%
same,Herbicidal action PHBPU,[10]; Comparative Table 9,90%
same,Herbicidal action VERPE,Veronica persica (VERPE); [23],100%
same,Damage to the crop plants GLXMA,[3]; [23],90%
CCn1nc(C)c(C(=O)c2ccc(S(C)(=O)=O)c(NCCOC)c2C)c1O [S7],Herbicidal action AVEFA,Avena fatua (AVEFA),50%
same,Herbicidal action ECHCG,[1]; [21],90%
same,pest or weed control at 320 g/ha,[2]; [19],70%
same,Herbicidal action MATIN,[2]; post-emergence application,70%
same,Herbicidal action PHBPU,[10]; Comparative Table 10,40%
same,Herbicidal action VERPE,Veronica persica (VERPE); [21],90%
same,Damage to the crop plants GLXMA,[3]; [20],60%
same,Damage to the crop plants GLXMA,[3]; [21],60%
same,Damage to the crop plants ZEAMX,Zea mays (corn) (ZEAMX) [7]; [20],20%
same,Damage to the crop plants ZEAMX,Zea mays (corn) (ZEAMX) [7]; [21],20%
same,Herbicidal action GALAP,Galium aparine (GALAP) [8],70%
same,Damage to the crop plants ZEAMX,Zea mays (corn) (ZEAMX) [9],20%
CCCCNc1c(S(C)(=O)=O)ccc(C(=O)c2c(C)nn(C)c2O)c1C [S3],Herbicidal action GALAP,Galium aparine (GALAP) [6]; [18],40%
same,Herbicidal action VERPE,Veronica persica (VERPE); [18],20%
same,Damage to the crop plants GLXMA,[3]; [18],20%
same,Damage to the crop plants ORYSA,[5]; [18],30%
CCCNc1c(S(C)(=O)=O)ccc(C(=O)c2c(C)nn(C)c2O)c1C [S2],Herbicidal action DIGSA,[11],80%
same,Herbicidal action ECHCG,[1]; [24],80%
same,pest or weed control at 80 g/ha,[2]; [25],30%
same,Herbicidal action VIOTR,Viola tricolor (VIOTR),80%
same,Damage to the crop plants ZEAMX,Zea mays (corn) (ZEAMX) [7]; [24],60%
